Test [1] has as its target T1, PI3Kα (Homo sapiens, UniProt P42336).
T1 construct: purchased Promega V1721
Put plainly: ADP-Glo lipid kinase assay, PI3Kα kinase activity. It is filed as biochemical. The note with it: for pIC50: ADP-Glo, 0.1 nM enzyme, 120 min, 50 μM ATP; for Selectivity of PI3Kα vs PI3Kβ: ratio of IC50 PI3Kβ to IC50 PI3Kα; for Selectivity of PI3Kα vs PI3Kγ: ratio of IC50 PI3Kγ to IC50 PI3Kα; for Selectivity of PI3Kα vs PI3Kδ: ratio of IC50 PI3Kδ to IC50 PI3Kα. The gist of the method: (§1)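 ADP-Glo luminescence measured ADP formed by PI3Kα, β, γ or δ (0.1-2 nM working solution) with PIP2:3PS (50 μM added solution) and ATP in HEPES/MgCl2/NaCl/BSA buffer, 90 to 120 min at room temperature. % inhibition was set against DMSO and no-kinase controls, and IC50 came from a four-parameter fit.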
For orientation: In ADP-Glo the light output rises with the ADP produced.

The target in test [2] is T2, PI3Kβ (Homo sapiens, UniProt P42338).
T2 construct: purchased Carna 11-102
Briefly: ADP-Glo lipid kinase assay, PI3Kβ kinase activity. Particulars: 0.4 nM enzyme, 90 min, 100 μM ATP. In kind it is biochemical. The gist of the method:
as §1

Test [3] concerns the target T3, PI3Kγ (Homo sapiens, UniProt P48736).
T3 construct: purchased Thermofisher PV4786
Briefly: ADP-Glo lipid kinase assay, PI3Kγ kinase activity. It is filed as biochemical. The note with it: 0.4 nM enzyme, 120 min, 50 μM ATP. In short, it runs like this: as §1

In test [4] the target is T4, PI3Kδ (Homo sapiens, UniProt O00329).
T4 construct: purchased Carna 11-103
Briefly: ADP-Glo lipid kinase assay, PI3Kδ kinase activity. In kind it is biochemical. The note with it: 0.1 nM enzyme, 90 min, 100 μM ATP. The gist of the method: as §1

For test [5], the system named is PI3Kα mutant cancer cells HCC1954 (H1047R). Put plainly: Cell Titer-Glo proliferation inhibition, HCC1954. It is filed as cell-based. Particulars: Homo sapiens, 48 to 96 hours. As to the method: (§2) Experimental method: The proliferation inhibitory effect of the compounds of the examples on PI3Kα mutant cancer cell lines HCC1954, HGC-27 and MKN1 was determined by Cell Titer-Glo method. The cell lines were cultured in RPMI 1640 medium (Gibco #22400089) containing 10% FBS (Gibco #10091148) and 1% P/S (Hyclone #SV30010) at 37° C. and 5% CO2. Before the experiment, the cells were collected and counted, and then the cell density was adjusted. The cells were inoculated in a white 96-well plate (Corning #3610) at a density of 1000 to 10000 cells/well, and incubated in an incubator at 37° C., 5% CO2 overnight. The compound solution of different concentrations was added, and corresponding vehicle control was set at the same time. The cell plate was further incubated in an incubator at 37° C., 5% CO2 for 48 to 96 hours. The cell plate and its content were equilibrated to room temperature. 20 to 100 μL of Cell Titer-Glo solution (Promega #G7573) was added to each well, and the plate was shaked well and incubated at room temperature in the dark for 5 to 30 minutes. The chemiluminescence value was measured by the BioTek SynergyH1 microplate reader.
(§3) The percentage inhibition data of the well treated by the compounds of the examples was calculated through the vehicle control well on the plate {% inhibition rate=100−(test compound value/vehicle control value)×100}. The IC50 value was calculated by fitting the data of different concentrations and corresponding percentage inhibition rates to a four-parameter nonlinear logic formula with GraphPad prism.
(Cellular ATP, detected with luciferase, serves as a proxy for viable cell number.)

For test [6], the system named is PI3Kα mutant cancer cells MKN1 (E545K). Put plainly: Cell Titer-Glo proliferation inhibition, MKN1. It is filed as cell-based. Particulars: Homo sapiens, MKN-1, 48 to 96 hours. On the procedure: as §2, §3
In test [7] the test system is PI3Kα mutant cancer cells HGC-27 (E542K). Briefly: Cell Titer-Glo proliferation inhibition, HGC-27. In kind it is cell-based. The note with it: Homo sapiens, 48 to 96 hours. As to the method:
as §2, §3

The structures appear in SMILES notation. pIC50: −log10 of the molar value.

The term pIC50 denotes the IC50 on a negative log10 scale, so that one unit is a factor of ten.

T3 sequence (P48736 whole entry): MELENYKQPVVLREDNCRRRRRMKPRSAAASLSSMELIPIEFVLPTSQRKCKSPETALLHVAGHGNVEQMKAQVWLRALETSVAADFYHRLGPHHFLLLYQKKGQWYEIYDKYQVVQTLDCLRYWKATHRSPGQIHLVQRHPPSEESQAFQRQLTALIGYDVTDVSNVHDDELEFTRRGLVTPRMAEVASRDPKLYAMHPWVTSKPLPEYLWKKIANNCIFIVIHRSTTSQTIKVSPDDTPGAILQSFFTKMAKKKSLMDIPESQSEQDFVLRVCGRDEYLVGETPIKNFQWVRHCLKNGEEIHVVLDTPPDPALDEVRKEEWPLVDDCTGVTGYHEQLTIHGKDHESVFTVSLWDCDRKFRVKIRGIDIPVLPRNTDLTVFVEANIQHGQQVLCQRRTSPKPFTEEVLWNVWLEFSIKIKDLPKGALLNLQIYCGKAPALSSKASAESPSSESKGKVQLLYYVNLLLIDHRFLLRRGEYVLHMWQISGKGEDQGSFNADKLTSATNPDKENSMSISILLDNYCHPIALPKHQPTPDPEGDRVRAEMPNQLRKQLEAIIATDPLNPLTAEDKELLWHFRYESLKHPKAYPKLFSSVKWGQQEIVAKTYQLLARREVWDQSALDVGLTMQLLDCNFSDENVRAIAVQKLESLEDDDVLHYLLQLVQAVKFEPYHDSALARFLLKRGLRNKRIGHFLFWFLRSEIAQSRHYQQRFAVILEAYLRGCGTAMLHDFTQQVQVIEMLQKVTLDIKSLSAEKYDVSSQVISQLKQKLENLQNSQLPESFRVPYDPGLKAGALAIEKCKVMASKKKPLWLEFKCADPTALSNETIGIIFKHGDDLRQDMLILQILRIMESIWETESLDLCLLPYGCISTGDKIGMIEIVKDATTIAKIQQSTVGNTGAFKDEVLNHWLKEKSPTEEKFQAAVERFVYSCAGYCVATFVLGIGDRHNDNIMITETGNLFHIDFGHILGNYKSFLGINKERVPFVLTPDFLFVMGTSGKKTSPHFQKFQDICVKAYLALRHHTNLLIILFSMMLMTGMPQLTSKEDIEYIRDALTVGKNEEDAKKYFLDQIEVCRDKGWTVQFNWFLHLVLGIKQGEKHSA
T4 sequence (O00329 whole entry): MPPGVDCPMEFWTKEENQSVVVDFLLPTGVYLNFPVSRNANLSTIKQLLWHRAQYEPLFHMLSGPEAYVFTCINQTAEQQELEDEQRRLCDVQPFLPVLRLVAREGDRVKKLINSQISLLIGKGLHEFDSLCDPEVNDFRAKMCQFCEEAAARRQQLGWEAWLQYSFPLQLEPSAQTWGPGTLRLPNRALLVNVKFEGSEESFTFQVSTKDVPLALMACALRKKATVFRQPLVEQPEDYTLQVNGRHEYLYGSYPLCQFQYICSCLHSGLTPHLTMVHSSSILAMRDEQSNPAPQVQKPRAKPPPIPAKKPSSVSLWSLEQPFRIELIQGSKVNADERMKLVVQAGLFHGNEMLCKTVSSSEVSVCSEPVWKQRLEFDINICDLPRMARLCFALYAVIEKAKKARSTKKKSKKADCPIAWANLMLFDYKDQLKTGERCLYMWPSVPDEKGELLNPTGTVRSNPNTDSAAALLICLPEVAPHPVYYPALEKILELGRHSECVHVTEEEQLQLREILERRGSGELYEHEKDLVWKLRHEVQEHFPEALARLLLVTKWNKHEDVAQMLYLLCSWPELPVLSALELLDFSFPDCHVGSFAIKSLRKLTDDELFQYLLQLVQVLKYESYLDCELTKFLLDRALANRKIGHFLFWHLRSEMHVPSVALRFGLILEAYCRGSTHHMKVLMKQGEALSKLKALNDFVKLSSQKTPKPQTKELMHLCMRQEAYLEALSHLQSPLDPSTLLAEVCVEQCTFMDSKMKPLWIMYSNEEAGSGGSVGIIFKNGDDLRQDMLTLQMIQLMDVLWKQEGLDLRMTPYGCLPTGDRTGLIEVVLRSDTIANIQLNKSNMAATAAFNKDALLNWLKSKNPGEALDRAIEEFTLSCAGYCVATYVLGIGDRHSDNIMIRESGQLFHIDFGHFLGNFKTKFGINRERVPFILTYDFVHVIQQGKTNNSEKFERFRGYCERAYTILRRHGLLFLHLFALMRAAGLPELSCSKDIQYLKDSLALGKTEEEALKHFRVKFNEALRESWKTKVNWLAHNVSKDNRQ
T4 sequence (P27986 whole entry partner): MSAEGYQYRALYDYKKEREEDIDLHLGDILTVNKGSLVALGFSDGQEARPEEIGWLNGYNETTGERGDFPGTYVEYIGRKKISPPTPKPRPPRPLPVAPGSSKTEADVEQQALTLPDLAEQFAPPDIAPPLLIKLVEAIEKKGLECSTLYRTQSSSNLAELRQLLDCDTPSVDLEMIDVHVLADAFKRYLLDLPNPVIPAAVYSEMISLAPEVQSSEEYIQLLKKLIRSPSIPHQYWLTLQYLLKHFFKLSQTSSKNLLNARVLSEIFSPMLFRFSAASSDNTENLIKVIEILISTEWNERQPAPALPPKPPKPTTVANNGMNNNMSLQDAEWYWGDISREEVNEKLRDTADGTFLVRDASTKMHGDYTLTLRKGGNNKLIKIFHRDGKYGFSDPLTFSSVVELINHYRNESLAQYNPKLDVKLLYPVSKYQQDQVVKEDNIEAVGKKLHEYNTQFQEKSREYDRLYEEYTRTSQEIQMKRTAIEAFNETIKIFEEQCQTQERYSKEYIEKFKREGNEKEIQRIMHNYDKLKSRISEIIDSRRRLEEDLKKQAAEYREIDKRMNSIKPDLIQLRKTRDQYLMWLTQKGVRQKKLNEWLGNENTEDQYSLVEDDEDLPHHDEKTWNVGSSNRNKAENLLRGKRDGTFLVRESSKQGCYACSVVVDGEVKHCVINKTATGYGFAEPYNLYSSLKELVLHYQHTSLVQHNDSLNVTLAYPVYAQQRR
T1 sequence (P42336 whole entry): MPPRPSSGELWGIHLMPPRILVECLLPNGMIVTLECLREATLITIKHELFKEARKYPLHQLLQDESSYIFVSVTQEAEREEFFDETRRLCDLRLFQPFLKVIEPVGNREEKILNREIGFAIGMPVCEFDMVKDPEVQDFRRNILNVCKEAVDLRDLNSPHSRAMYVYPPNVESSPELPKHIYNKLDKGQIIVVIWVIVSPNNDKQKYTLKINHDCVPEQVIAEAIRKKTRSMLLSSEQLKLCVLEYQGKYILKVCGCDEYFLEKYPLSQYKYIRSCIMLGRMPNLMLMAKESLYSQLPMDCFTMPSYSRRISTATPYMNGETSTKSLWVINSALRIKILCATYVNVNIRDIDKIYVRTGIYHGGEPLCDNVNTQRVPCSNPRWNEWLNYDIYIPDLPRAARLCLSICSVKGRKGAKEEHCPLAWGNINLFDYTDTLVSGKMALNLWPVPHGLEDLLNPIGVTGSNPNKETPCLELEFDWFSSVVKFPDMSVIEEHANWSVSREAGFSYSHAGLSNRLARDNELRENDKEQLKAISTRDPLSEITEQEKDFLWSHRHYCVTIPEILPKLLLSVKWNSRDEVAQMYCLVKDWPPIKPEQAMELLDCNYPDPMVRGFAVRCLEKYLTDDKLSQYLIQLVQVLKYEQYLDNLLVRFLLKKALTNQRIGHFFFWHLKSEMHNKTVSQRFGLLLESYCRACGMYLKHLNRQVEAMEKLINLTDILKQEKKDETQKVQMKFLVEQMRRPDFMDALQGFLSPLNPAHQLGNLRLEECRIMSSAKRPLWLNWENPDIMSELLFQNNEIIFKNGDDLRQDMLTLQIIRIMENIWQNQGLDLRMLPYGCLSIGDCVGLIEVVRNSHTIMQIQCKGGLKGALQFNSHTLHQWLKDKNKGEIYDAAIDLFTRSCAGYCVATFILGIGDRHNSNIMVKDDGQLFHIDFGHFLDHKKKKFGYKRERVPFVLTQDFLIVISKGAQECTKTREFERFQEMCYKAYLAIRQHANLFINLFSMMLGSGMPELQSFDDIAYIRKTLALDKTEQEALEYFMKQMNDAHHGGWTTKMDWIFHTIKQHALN
T1 sequence (P27986 whole entry partner): as the sequence (P27986 whole entry partner) above
T2 sequence (P42338 whole entry): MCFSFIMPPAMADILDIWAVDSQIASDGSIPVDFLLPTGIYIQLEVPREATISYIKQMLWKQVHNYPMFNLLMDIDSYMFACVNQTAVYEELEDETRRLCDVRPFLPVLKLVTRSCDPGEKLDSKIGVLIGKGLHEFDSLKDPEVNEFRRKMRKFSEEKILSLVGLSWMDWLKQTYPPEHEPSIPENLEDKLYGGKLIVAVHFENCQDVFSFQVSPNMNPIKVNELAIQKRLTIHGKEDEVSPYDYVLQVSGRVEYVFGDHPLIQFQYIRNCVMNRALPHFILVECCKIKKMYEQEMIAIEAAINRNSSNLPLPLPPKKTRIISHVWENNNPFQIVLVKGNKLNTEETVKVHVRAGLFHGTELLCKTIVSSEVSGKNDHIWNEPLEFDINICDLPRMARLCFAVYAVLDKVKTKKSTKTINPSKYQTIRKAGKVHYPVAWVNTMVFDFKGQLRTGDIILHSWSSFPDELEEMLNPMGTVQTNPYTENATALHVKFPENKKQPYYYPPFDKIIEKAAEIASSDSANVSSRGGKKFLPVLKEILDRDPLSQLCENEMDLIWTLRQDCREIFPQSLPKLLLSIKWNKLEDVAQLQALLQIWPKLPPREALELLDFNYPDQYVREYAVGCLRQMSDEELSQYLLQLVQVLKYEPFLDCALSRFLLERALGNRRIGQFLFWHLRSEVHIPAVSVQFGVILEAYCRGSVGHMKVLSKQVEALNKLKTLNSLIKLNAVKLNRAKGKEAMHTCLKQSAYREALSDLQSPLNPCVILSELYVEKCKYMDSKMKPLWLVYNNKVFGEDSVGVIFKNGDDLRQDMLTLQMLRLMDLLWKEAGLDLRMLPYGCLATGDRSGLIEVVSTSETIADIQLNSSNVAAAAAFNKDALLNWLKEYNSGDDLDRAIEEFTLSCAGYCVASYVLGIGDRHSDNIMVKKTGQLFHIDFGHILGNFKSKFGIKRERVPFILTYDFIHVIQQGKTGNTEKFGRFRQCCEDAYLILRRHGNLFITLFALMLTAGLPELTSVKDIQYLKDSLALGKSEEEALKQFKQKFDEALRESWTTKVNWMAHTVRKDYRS
T2 sequence (P27986 whole entry partner): as the sequence (P27986 whole entry partner) above

For `C[C@H](Nc1ccc2c(c1)OCCn1cc(N3C(=O)CN(C)C[C@H]3C(F)F)nc1-2)C(N)=O` [Example 69, (S)-2-((2-((S)-2-(difluoromethyl)-4-methyl-6-oxopiperazin-1-yl)-5,6-dihydrobenzo[f]imidazo[1,2-d][1,4]oxazepin-9-yl)amino)propanamide], the pIC50 was 8.68 in test [1]; 5.50 in test [2]; 6.48 in test [3]; 6.85 in test [4]; 6.22 in test [5]; 6.23 in test [6]. In test [7], the pIC50 was 6.36. The “Selectivity of PI3Kα vs PI3Kβ” value in test [1] stood at 1514. Also, the “Selectivity of PI3Kα vs PI3Kγ” value in test [1] was found to be 158. Moreover, the “Selectivity of PI3Kα vs PI3Kδ” value in test [1] was determined as 68.

As for `C[C@H](Nc1ccc2c(c1)OCCn1cc(N3C(=O)OC[C@H]3CC#N)nc1-2)C(N)=O` [Example 118, (S)-2-((2-((R)-4-(cyanomethyl)-2-oxooxazolidin-3-yl)-5,6-dihydrobenzo[f]imidazo[1,2-d][1,4]oxazepin-9-yl)amino)propanamide], the pIC50 in test [1] is 8.89; in test [2], 6.72; in test [3] it was 7.13; in test [4], 7.30; in test [5], 6.85; in test [6], 6.40. Also, the pIC50 in test [7] was 6.43. Moreover, in test [1], the “Selectivity of PI3Kα vs PI3Kβ” value worked out at 146. Besides, the “Selectivity of PI3Kα vs PI3Kγ” value in test [1] came out at 57. Further, the “Selectivity of PI3Kα vs PI3Kδ” value in test [1] is recorded as 38.

With `C[C@H](Nc1ccc2c(c1)OCCn1cc(N3C(=O)SC[C@H]3CC#N)nc1-2)C(N)=O` [Example 119, (S)-2-((2-((R)-4-(cyanomethyl)-2-oxothiazolidin-3-yl)-5,6-dihydrobenzo[f]imidazo[1,2-d][1,4]oxazepin-9-yl)amino)propanamide], the pIC50 was 8.62 in test [1]; 6.39 in test [2]; 6.94 in test [3]; 7.15 in test [4]; 6.87 in test [5]; 6.52 in test [6]. Further, the pIC50 in test [7] was 6.45. Also, the “Selectivity of PI3Kα vs PI3Kβ” value in test [1] is on record as 170. In addition, the “Selectivity of PI3Kα vs PI3Kγ” value in test [1] is given as 48. Besides, the “Selectivity of PI3Kα vs PI3Kδ” value in test [1] came to 30.

(Values after US20210221822A1, “TRICYCLIC DERIVATIVES INHIBITOR, PREPARATION METHOD, AND APPLICATIONS THEREOF” (Jiangsu Hansoh Pharmaceutical Group Co., Ltd., priority 2018, published 2021).)
